Assay results reported in patent publication US12167998B2, “Spiro-lactam NMDA receptor modulators and uses thereof” (Tenacia Biotechnology (Hong Kong) Co., Limited, priority 2013, dated 2024).
Read-outs that look alike come from different tables or passages of the source. One block for each molecule: values may come before it.

Experiments:
[1] = target: NMDA receptor glycine site, rat cortical membranes (Rattus norvegicus (Rat), UniProt P35439); test: [3H] MK-801 binding assay (potentiation of [3H]MK-801 binding)
Experimental: Assays were conducted as described in Moskal et al. (Moskal, J. R., Kuo, A. G., Weiss, C., Wood, P. L., O'Connor Hanson, A., Kelso, S., Harris, R. B., Disterhoft, J. F., 2005. GLYX-13: a monoclonal antibody-derived peptide that acts as an N-methyl-D-aspartate receptor modulator. Neuropharmacology. 49, 1077-87) The potentiation of [^3H]MK-801 binding (5 nM; 22.5 Ci/mmol) to well washed rat cortical membranes (200 μg) was measured under non-equilibrium conditions (15 min @ 25° C.) in the presence of increasing concentrations of test compounds and […]. Zero levels were determined in the absence of any glycine ligand and in the presence of 30 μM 5.7 DCKA. Maximal stimulation was measured in the presence of 1 mM glycine, and 500 μM glutamate was present in all samples. The facilitation of [^3H]MK-801 binding by tests compounds was calculated by using a 3 parameter log agonist vs. response equation (Graph pad Prism, USA) and potency (EC50, expressed in pM) and maximal activity (% maximal stimulation) were calculated for the test compound.

[2] = system: hippocampal slices, Schaffer collateral-CA1; test: Long term potentiation in hippocampal slices; type: cell-based, rat; details: for LTP: LTP Augmentation (%): Table 4
Experimental: Assays were conducted as described in Zhang et al. (Zhang, X. L., Sullivan, J. A., Moskal, J. R., Stanton, P. K., 2008. A NMDA receptor glycine site partial agonist, GLYX-13, simultaneously enhances LTP and reduces LTD at Schaffer collateral-CA1 synapses in hippocampus. Neuropharmacology. 55, 1238-50) Sprague-Dawley rats (12-18 days old; Taconic Farms) were deeply anesthetized with isoflurane and decapitated. Rat brains were removed rapidly, submerged in ice-cold artificial cerebrospinal fluid (ACSF, 2-4° C.), which contained (in mM): 124 NaCl, 4 KCl, 2 MgSO4, 2 CaCl2, 1.25 NaH2PO4, 26 NaHCO3, 10 glucose; at pH 7.4, gassed continuously with 95% O2/5% CO2). The rat brains were hemisected, the frontal lobes cut off, and individual hemispheres glued using cyanoacrylate adhesive onto a stage immersed in ice-cold ACSF gassed continuously with 95% O2/5% CO2 during slicing. Coronal slices (400 μm thick) were cut using a Vibratome (Leica VT1200S), and transferred to an interface holding chamber for incubation at room temperature for a minimum of one hour before transferring to a Haas-style interface recording chamber continuously perfused at 3 ml/min with oxygenated ACSF at 32±0.5° C. Low resistance recording electrodes were made from thin-walled borosilicate glass (1-2 MΩ after filling with ACSF) and inserted into the apical dendritic region of the Schaffer collateral termination field in stratum radiatum of field CA1 region to record field excitatory postsynaptic potentials (fEPSPs). A bipolar stainless steel stimulating electrode (FHC Co.) was placed on Schaffer collateral-commissural fibers in CA3 stratum radiatum, and constant current stimulus intensity adjusted to evoke approximately half-maximal fEPSPs once each 30 s ([…]; 100 μs duration). fEPSP slope was measured before and after induction of LTP by linear interpolation from 20 to 80% of maximum negative deflection, and slopes confirmed to be stable to within ±10% for at least 15 min before commencing an experiment. […] LTP was induced by stimulation of Schaffer collateral axons with four high frequency theta burst stimulus trains of 10×100 Hz/5 pulse bursts each, applied at an inter-burst interval of 200 ms. Each train was 2 seconds in duration, and trains were applied 15 seconds apart. The signals were recorded using a Multiclamp 700B amplifier and digitized with a Digidata 1322 (Axon Instruments, USA). Data were analyzed using pClamp software (version 9, Axon Instruments) on an IBM-compatible personal computer.

[3] = Porsolt test, floating time inhibition; type: in vivo; details: 1 hour post dose
[4] = Table 4, rat cortex, read-out: MK-801 Glycine Site Binding Assay: Rat Cortex EC50
[5] = Table 3, read-out: [3H] MK-801 binding assay: EC50

Compound: C[C@@H](O)[C@@H](C(N)=O)N1CC2(CCCN2C(=O)OC(C)(C)C)C1=O (stereo partly drawn) [Compound 2S-FNL-2, tert-butyl 2-((2S,3R)-1-amino-3-hydroxy-1-oxobutan-2-yl)-1-oxo-2,5-diazaspiro[3,4] octane-5-carboxylate]
EC50 [1, 4]: 20 nM

Compound: C[C@@H](O)[C@@H](C(N)=O)N1CC2(CCCN2)C1=O (stereo partly drawn) [Compound 2S-FNL-3, (2S,3R)-3-hydroxy-2-(1-oxo-2,5-diazaspiro[3.4]octan-2-yl) butanamide]
EC50 [1, 5]: 54.3 nM
Unified Activity Data: LTP Augmentation (Percent) ([2]; LTP concentration 1 uM): 130%
Unified Activity Data: Porsolt Floating Time Inhibition (Percent) ([3]; 3 mg/kg IV): 80%

Compound: NC(=O)[C@H](CO)N1CC2(CCCN2)C1=O (stereo partly drawn) [Compound 2S-FNL-21, (2S)-3-hydroxy-2-(1-oxo-2,5-diazaspiro[3.4]octan-2-yl)propanamide]
Unified Activity Data: LTP Augmentation (Percent) ([2]; LTP concentration 0.1 uM): 80%

Compound: CC(=O)O[C@H](C)[C@@H](C(=O)N1CCCC1)N1CC2(CCCN2)C1=O (stereo partly drawn) [Compound 2S-FNL-27, (2R,3S)-4-oxo-3-(1-oxo-2,5-diazaspiro[3.4]octan-2-yl)-4-(pyrrolidin-1-yl) butan-2-yl acetate]
EC50 [1, 5]: 0.00349 nM

Compound: CC1CCC2(CN([C@H](C(N)=O)[C@@H](C)O)C2=O)N1 (stereo partly drawn) [Compound 2S-FNL-34, (2S,3R)-3-hydroxy-2-(6-methyl-1-oxo-2,5-diazaspiro[3.4]octan-2-yl) butanamide]
Unified Activity Data: LTP Augmentation (Percent) ([2]; LTP concentration 0.1 uM): 100%
Unified Activity Data: Porsolt Floating Time Inhibition (Percent) ([3]; 1 mg/kg PO): 73%

The next lines start with results.

EC50 [1, 5]: 11 nM
Compound: CC(N)C(C(N)=O)N1CC2(CCCN2)C1=O (stereo not drawn) [Compound 2S-FNL-7, 3-amino-2-(1-oxo-2,5-diazaspiro[3.4]octan-2-yl)butanamide]

EC50 [1, 4]: 0.00119 nM
Compound: C[C@@H](O)[C@@H](C(=O)NCc1ccccc1)N1CC2(CCCN2C(=O)OC(C)(C)C)C1=O (stereo partly drawn) [Compound 2S-FNL-10, tert-butyl 2-((2S,3R)-1-(benzylamino)-3-hydroxy-1-oxobutan-2-yl)-1-oxo-2,5-diazaspiro[3.4] octane-5-carboxylate]
LTP: LTP Augmentation (%) ([2]; LTP concentration 1 uM): 90%

EC50 [1, 4]: 0.0613 nM
Compound: C[C@@H](O)[C@@H](C(=O)NCc1ncno1)N1CC2(CCCN2C(=O)OC(C)(C)C)C1=O (stereo partly drawn) [Compound 2S-FNL-14, tert-butyl 2-((2S,3R)-1-(((1,2,4-oxadiazol-5-yl)methyl)amino)-3-hydroxy-1-oxobutan-2-yl)-1-oxo-2,5-diazaspiro[3.4] octane-5-carboxylate]
LTP: LTP Augmentation (%) ([2]; LTP concentration 1 uM): 120%

EC50 [1, 4]: 18.9 nM
Compound: CC1CCC2(CN([C@H](C(N)=O)[C@@H](C)O)C2=O)N1C(=O)OC(C)(C)C (stereo partly drawn) [Compound 2S-FNL-33, tert-butyl 2-((2S,3R)-1-amino-3-hydroxy-1-oxobutan-2-yl)-6-methyl-1-oxo-2,5-diazaspiro[3.4] octane-5-carboxylate]
LTP: LTP Augmentation (%) ([2]; LTP concentration 1 uM): 140%

EC50 [1, 4]: 3.31 nM
Compound: CC1CCC2(N1)C(=O)N([C@H](C(=O)N1CCCC1)[C@@H](C)O)C2C (stereo partly drawn) [Compound 2S-FNL-38, 2-((2S,3R)-3-hydroxy-1-oxo-1-(pyrrolidin-1-yl)butan-2-yl)-3,6-dimethyl-2,5-diazaspiro[3.4]octan-1-one]

Emax ([1]; maximal stimulation measured with 1 mM glycine): 38%
pEC50 ([1]; rat cortical membranes, 50 μM glutamate): 7.4
EC50 ([1]; rat cortical membranes, 50 μM glutamate, read-out: pEC50 (converted)): 39.8 nM
Compound: C[C@@H](O)[C@@H](C(N)=O)N1CC2(CCCN2)C1=O (stereo partly drawn) [Compound X, (2S,3R)-3-hydroxy-2-(1-oxo-2,5-diazaspiro[3,4]octan-2-yl)butanamide]
long-term potentiation after high frequency stimulation of Schaffer collateral-evoked NMDA e.p.s.c.s in CA1 pyramidal neurons ([2]; tested at 1 μM, FIG. 2): increased long-term potentiation
